# How the values were obtained:
# Assay type in all cases: in vivo
# Settings in all cases: evaluated after 13 days
# [1] = test system: Ipomoea hederacea (IPOHE); test: Pre-emergence herbicide test, glasshouse, percentage damage
# Method: (§1) Seeds of a variety of test species are sown in standard soil in pots (Lolium perenne (LOLPE), Solanum nigrum (SOLNI), Amaranthus retoflexus (AMARE), Setaria faberi (SETFA), Echinochloa crus-galli (ECHCG), Ipomoea hederacea (IPOHE)). After cultivation for one day (pre-emergence) or after 8 days cultivation (post-emergence) under controlled conditions in a glasshouse (at 24/16° C., day/night; 14 hours light; 65% humidity), the plants are sprayed with an aqueous spray solution derived from the formulation of the technical active ingredient in acetone/water (50:50) solution containing 0.5% Tween 20 (polyoxyethelyene sorbitan monolaurate, CAS RN 9005-64-5). Compounds are applied at 500 g/ha unless otherwise stated. The test plants are then grown in a glasshouse under controlled conditions in a glasshouse (at 24/16° C., day/night; 14 hours light; 65% humidity) and watered twice daily. After 13 days for pre and post-emergence, the test is evaluated for the percentage damage caused to the plant. The biological activities are shown in the following table on a five point scale (5=81-100%; 4=61-80%; 3=41-60%; 2=21-40%; 1=0-20%).
# [2] = test system: Echinochloa crus-galli (ECHCG); test: as above
# Method: as §1
# [3] = test system: Amaranthus retoflexus (AMARE); test: as above
# Method: as §1
# Lolium perenne (LOLPE) [4] = test: as above
# Method: as §1
# Setaria faberi (SETFA) [5] = test: as above
# Method: as §1
# Solanum nigrum (SOLNI) [6] = test: as above
# Method: as §1
# [7] = test system: Ipomoea hederacea (IPOHE); test: Post-emergence herbicide test, glasshouse, percentage damage
# Method: as §1
# [8] = test system: Echinochloa crus-galli (ECHCG); test: as above
# Method: as §1
# [9] = test system: Amaranthus retoflexus (AMARE); test: as above
# Method: as §1
# Lolium perenne (LOLPE) [10] = test: as above
# Method: as §1
# Setaria faberi (SETFA) [11] = test: as above
# Method: as §1
# Solanum nigrum (SOLNI) [12] = test: as above
# Method: as §1
Compound,Pre-emergence Test IPOHE percentage damage (five point scale) ([1]; rate 1000 g/ha),Pre-emergence Test ECHCG percentage damage (five point scale) ([2]; rate 1000 g/ha),Pre-emergence Test AMARE percentage damage (five point scale) ([3]; rate 1000 g/ha),Pre-emergence Test LOLPE percentage damage (five point scale) (Lolium perenne (LOLPE) [4]; rate 1000 g/ha),Pre-emergence Test SETFA percentage damage (five point scale) (Setaria faberi (SETFA) [5]; rate 1000 g/ha),Pre-emergence Test SOLNI percentage damage (five point scale) (Solanum nigrum (SOLNI) [6]; rate 1000 g/ha),"percentage damage caused to the plant, IPOHE ([7]; 1000 g/ha)","percentage damage caused to the plant, ECHCG ([8]; 1000 g/ha)","percentage damage caused to the plant, AMARE ([9]; 1000 g/ha)","percentage damage caused to the plant, LOLPE (Lolium perenne (LOLPE) [10]; 1000 g/ha)","percentage damage caused to the plant, SETFA (Setaria faberi (SETFA) [11]; 1000 g/ha)","percentage damage caused to the plant, SOLNI (Solanum nigrum (SOLNI) [12]; 1000 g/ha)",other results
Fc1cc(Cl)cnc1Oc1cccc(F)c1-c1ncc(C(F)F)o1 [Compound A35],1 (1=0-20%),5 (5=81-100%),3 (3=41-60%),1 (1=0-20%),5 (5=81-100%),5 (5=81-100%),2 (2=21-40%),1 (1=0-20%),5 (5=81-100%),1 (1=0-20%),4 (4=61-80%),5 (5=81-100%),–
Fc1cccc(Oc2cccc(Cl)c2-c2cc(C(F)F)no2)n1 [Compound A111],1 (1=0-20%),5 (5=81-100%),5 (5=81-100%),4 (4=61-80%),5 (5=81-100%),4 (4=61-80%),4 (4=61-80%),4 (4=61-80%),5 (5=81-100%),4 (4=61-80%),5 (5=81-100%),5 (5=81-100%),–
Fc1cccc(Oc2cccc(C(F)F)n2)c1-c1cc(C(F)F)no1 [Compound A55],1 (1=0-20%),1 (1=0-20%),2 (2=21-40%),1 (1=0-20%),4 (4=61-80%),2 (2=21-40%),1 (1=0-20%),1 (1=0-20%),5 (5=81-100%),1 (1=0-20%),2 (2=21-40%),5 (5=81-100%),–
"Fc1cc(Cl)cnc1Oc1cccc(F)c1-c1ncc(C(F)(F)F)o1 [Compound A3, 2-[2-[(5-CHLORO-3-FLUORO-2-PYRIDYL)OXY]-6-FLUORO-PHENYL]-5-(TRIFLUOROMETHYL)OXAZOLE]",–,–,–,–,–,–,–,–,–,–,–,–,"Pre-emergence Test IPOHE percentage damage (five point scale) ([1]; rate 500 g/ha): 1 (1=0-20%); Pre-emergence Test ECHCG percentage damage (five point scale) ([2]; rate 500 g/ha): 3 (3=41-60%); Pre-emergence Test AMARE percentage damage (five point scale) ([3]; rate 500 g/ha): 3 (3=41-60%); Pre-emergence Test LOLPE percentage damage (five point scale) (Lolium perenne (LOLPE) [4]; rate 500 g/ha): 1 (1=0-20%); Pre-emergence Test SETFA percentage damage (five point scale) (Setaria faberi (SETFA) [5]; rate 500 g/ha): 3 (3=41-60%); Pre-emergence Test SOLNI percentage damage (five point scale) (Solanum nigrum (SOLNI) [6]; rate 500 g/ha): 3 (3=41-60%); percentage damage caused to the plant, IPOHE ([7]; 500 g/ha): 1 (1=0-20%); percentage damage caused to the plant, ECHCG ([8]; 500 g/ha): 1 (1=0-20%); percentage damage caused to the plant, AMARE ([9]; 500 g/ha): 2 (2=21-40%); percentage damage caused to the plant, LOLPE (Lolium perenne (LOLPE) [10]; 500 g/ha): 1 (1=0-20%); percentage damage caused to the plant, SETFA (Setaria faberi (SETFA) [11]; 500 g/ha): 4 (4=61-80%); percentage damage caused to the plant, SOLNI (Solanum nigrum (SOLNI) [12]; 500 g/ha): 3 (3=41-60%)"
Fc1cc(Cl)cnc1Oc1cccc(F)c1-c1cc(C(F)F)on1 [Compound A30],5 (5=81-100%),5 (5=81-100%),5 (5=81-100%),5 (5=81-100%),5 (5=81-100%),5 (5=81-100%),5 (5=81-100%),5 (5=81-100%),5 (5=81-100%),5 (5=81-100%),5 (5=81-100%),5 (5=81-100%),–
N#Cc1cnc(Oc2cccc(F)c2-c2cc(C(F)F)no2)c(F)c1 [Compound A23],5 (5=81-100%),5 (5=81-100%),5 (5=81-100%),5 (5=81-100%),5 (5=81-100%),4 (4=61-80%),5 (5=81-100%),5 (5=81-100%),5 (5=81-100%),5 (5=81-100%),5 (5=81-100%),5 (5=81-100%),–
N#Cc1cc(F)cnc1Oc1cccc(Cl)c1-c1cc(C(F)F)no1 [Compound A85],5 (5=81-100%),5 (5=81-100%),5 (5=81-100%),5 (5=81-100%),5 (5=81-100%),5 (5=81-100%),5 (5=81-100%),5 (5=81-100%),5 (5=81-100%),5 (5=81-100%),5 (5=81-100%),5 (5=81-100%),–
Fc1cc(Cl)cnc1Oc1ccccc1-n1cc(C(F)(F)F)cn1 [Compound A16],5 (5=81-100%),5 (5=81-100%),5 (5=81-100%),5 (5=81-100%),5 (5=81-100%),5 (5=81-100%),5 (5=81-100%),5 (5=81-100%),4 (4=61-80%),5 (5=81-100%),5 (5=81-100%),5 (5=81-100%),–
CS(=O)(=O)c1ccc(Oc2cccc(F)c2-c2cc(C(F)F)no2)nc1 [Compound A40],1 (1=0-20%),1 (1=0-20%),2 (2=21-40%),1 (1=0-20%),1 (1=0-20%),1 (1=0-20%),1 (1=0-20%),1 (1=0-20%),3 (3=41-60%),1 (1=0-20%),1 (1=0-20%),4 (4=61-80%),–
FC(F)c1cc(-c2c(Cl)cccc2Oc2ccc(C(F)(F)F)cn2)on1 [Compound A110],4 (4=61-80%),4 (4=61-80%),5 (5=81-100%),4 (4=61-80%),5 (5=81-100%),4 (4=61-80%),4 (4=61-80%),4 (4=61-80%),5 (5=81-100%),4 (4=61-80%),5 (5=81-100%),5 (5=81-100%),–
Fc1cc(Br)cnc1Oc1cccc(Cl)c1-c1cc(C(F)F)no1 [Compound A116],4 (4=61-80%),5 (5=81-100%),5 (5=81-100%),5 (5=81-100%),5 (5=81-100%),4 (4=61-80%),5 (5=81-100%),4 (4=61-80%),5 (5=81-100%),5 (5=81-100%),5 (5=81-100%),5 (5=81-100%),–
